Test system: NC/Nga mice
Assay: DNCB-induced atopic dermatitis-like skin lesions
Assay type: in vivo, mouse
Description: Seven-week-old NC/Nga mice were purchased from the Shizuoka Laboratory Animal Center (Shizuoka, Japan) and allowed to adapt to the environment for a week prior to use. The procedures for the induction of atopic dermatitis-like symptoms in mice using 1-chloro-2,4-dinitro-benzene (DNCB) have been well described previously ([27]). Briefly, the dorsal hair of the mice was shaved 2 days before DNCB administration. For the induction of atopic dermatitis, 1% DNCB was applied to the dorsal skin of the mice twice weekly for 7 days and then 0.2% DNCB was applied thrice weekly for 21 days. The mice were divided into the following […] treatment groups (n = 10 per group): 0.3 and 3% Vp2N/day, 0.3 and 3% Vp8N/day, 0.1% dexamethasone/day, and vehicle only, dorsally administered from 9 to 13 weeks of age. As a negative control for atopic dermatitis, NC/Nga mice that were not treated with DNCB were maintained under pathogen-free conditions. Laboratory animal breeding management was based on the “Guide for the Care and Use of Laboratory Animals,” and all experiments were approved by the Institutional Animal Care and Use Committees of Gyeonggi Institute of Science & Technology.

LQSEVEGVKNIMTQNVE [Vp8N, 17-mer peptide, N-terminal region of VAMP8 SNARE motif]
epidermal thickness (0.3 and 3% peptide/day dorsally for 4 weeks, n = 10 per group, versus DNCB/vehicle-treated group (Figure 5C)): significantly reduced | atopic dermatitis features (acanthosis, hypergranulosis, hyperkeratosis) in hematoxylin and eosin-stained sections (0.3 and 3% peptide/day dorsally, 9 to 13 weeks of age, n = 10 per group, compared with 0.1% dexamethasone/day group (Figure 5B)): clearly alleviated to a similar extent | ear thickness (0.3 and 3% peptide/day or 0.1% dexamethasone/day for 4 weeks, n = 10 per group (Figure 5D)): reduced | serum IgE levels (daily dorsal application for 4 weeks, n = 10 per group (Figure 5F)): significantly reduced

From PMC5904360, “Soluble N-Ethylmaleimide-Sensitive Factor Attachment Protein Receptor-Derived Peptides for Regulation of Mast Cell Degranulation” (Frontiers in Immunology, 2018)
